According to patent US8993624B2, “Method of preventing and treating inflammatory diseases and disorders with abscisic acid” (Virginia Tech Intellectual Properties, Inc., priority 2010, dated 2015):

Experiments:
NF-κB [1] = test: NF-κB activity in spleens of LPS-challenged mice; format: in vivo, mouse; conditions: spleen
Description: NF-κB and NFAT activities—Spleens were diced into smaller pieces in lysis buffer containing dithiothreitol and a protease inhibitor cocktail and then further disrupted using a dounce ground glass homogenizer at 4° C. Nuclear extraction for tissue homogenate and BMM was performed using the Nuclear Extract kit (Active Motif, Carlsbad, Calif.) per the manufacturer's instructions. The extracts were used to perform a Bradford-based assay for quantifying the protein concentrations and stored at −80° C. NF-κB and NFATc1 activities were measured as previously described (13) by using the Trans-AM™ NF-κB p65 and the Trans-AM™ NFATc1 ELISA-based assays (Active Motif), respectively per the manufacturer's instructions.

[2] = test system: LPS-induced systemic inflammation; test: LPS challenge in mice, immune cell subsets by flow cytometry; format: in vivo, mouse
Description: Flow Cytometry—Mesenteric lymph nodes (MLN) and spleen-derived cells (2×10^5 cells/well) or whole blood (10 μL/well) were seeded onto 96-well plates, centrifuged at 4° C. at 3000 rpm for 4 minutes, and washed with PBS containing 5% fetal bovine serum and 0.09% sodium azide (FACS buffer). To assess differential monocyte/macrophage subsets, the cells were incubated in the dark at 4° C. for 20 minutes in FcBlock (20 μg/ml; BD Pharmingen), and then for an additional 20 minutes with fluorochrome-conjugated primary antibodies anti-F4/80-PE-Cy5 (5 μg/mL, eBioscience) and anti-CD 11b-Alexa Fluor 700 (2 μg/mL, eBioscience), and anti-TLR-4-PE-Cy7 (2 μg/mL, eBioscience). For lymphocyte assessment, cells were incubated with anti-CD4-FITC (2 μg/mL; BD Pharmingen), anti-CD8-PerCp-Cy5.5 (2 μg/mL, eBioscience), CD3 PE-Cy5 (2 μg/mL; BD Pharmingen), anti-TLR-4 PE-Cy7, and anti-IL17A-PE (2 μg/mL, eBioscience) as previously shown (23). Flow results were computed with a BD LSR II flow cytometer and data analyses was performed with FACS Diva software (BD).

A/California/09 (H1N1) = test: Post-exposure ABA by gavage, A/California/09 (H1N1) challenge in mice; format: in vivo, mouse
NF-κB [3] = test: NF-κB reporter activity assay in 3T3-L1 cells
macrophages = test: Intracellular cAMP in macrophages; format: cell-based, mouse; conditions: 10 minutes
Description: (§1) Intracellular cAMP in CD3/CD28-stimulated splenocytes and LPS-stimulated macrophages—Spleens were excised from C57BL6/J mice under sterile conditions. Cells were released by disrupting the tissue between frosted glass slides and red blood cells were lysed with erythrocyte lysis buffer. Splenocytes were enumerated with a Coulter Counter (Beckman Coulter, Fullerton, Calif.) and seeded in cRPMI at 1×10^6/ml onto 24-well plates pre-coated with anti-mouse CD3 (5 μg/mL; BD Pharmingen) and anti-mouse CD28 (1 μg/mL; BD Pharmingen). […] For intracellular assessment of cAMP, cells were harvested into 0.1 M HCl and the lysates were collected. The cAMP concentration of the lysates was determined using an EIA kit (Assay Designs, Ann Arbor, Mich.).

PPAR γ = biological target: T1, PPAR γ (Mus musculus, UniProt P37238); conditions: racemic mixture, 3T3-L1 preadipocytes; cited from earlier work
T1 construct: host or cells: 3T3-L1 preadipocytes
T1 sequence (P37238 1-505): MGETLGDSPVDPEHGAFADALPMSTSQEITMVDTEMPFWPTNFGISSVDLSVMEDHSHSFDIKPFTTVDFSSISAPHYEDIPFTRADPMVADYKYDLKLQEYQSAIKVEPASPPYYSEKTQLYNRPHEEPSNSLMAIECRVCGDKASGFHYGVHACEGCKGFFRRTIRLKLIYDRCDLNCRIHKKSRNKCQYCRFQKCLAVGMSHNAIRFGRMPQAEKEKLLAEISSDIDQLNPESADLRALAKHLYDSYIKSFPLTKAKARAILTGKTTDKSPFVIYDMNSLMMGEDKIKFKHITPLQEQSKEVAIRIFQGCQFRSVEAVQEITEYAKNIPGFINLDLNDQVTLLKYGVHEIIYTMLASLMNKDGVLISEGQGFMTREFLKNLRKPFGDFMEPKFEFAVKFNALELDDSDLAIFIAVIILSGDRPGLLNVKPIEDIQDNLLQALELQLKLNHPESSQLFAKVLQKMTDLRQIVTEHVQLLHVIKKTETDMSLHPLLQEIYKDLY

Influenza A/Udorn (H3N2) = test: Post-exposure ABA by gavage, Influenza A/Udorn challenge in mice; format: in vivo, mouse
RXR = RXR reporter activity (data not shown); format: cell-based
[4] = test system: CD3/CD28-stimulated splenocytes; test: Intracellular cAMP and mRNA in CD3/CD28-stimulated splenocytes; format: cell-based, mouse
Description: as §1

[5] = test system: LPS-stimulated bone marrow-derived macrophages; test: Inflammatory mediators in LPS-stimulated bone marrow-derived macrophages; format: cell-based, mouse; conditions: ABA 2.5 μM, 12 hours
Description: Bone Marrow-derived Macrophage (BMM) Cultures—Bone marrow cells from PPAR γ flfl; MMTV-Cre− (flfl-Cre−) and flfl-Cre+ mice were cultured in DMEM with M-CSF (50 ng/ml) for 7 days. Fresh media with M-CSF was added on day 3. […] Following differentiation macrophages were directly stimulated with LPS (100 ng/ml) as previously described for 12 hours (21). ABA was added to macrophage cultures at a concentration of 2.5 μM. The effect of ABA on LPS/toll-like receptor-4 (TLR4)-mediated prostaglandin E2 (PGE2), leukotriene B4 (LTB4) and monocyte chemoattractant protein-1 (MCP-1) production by macrophages was examined in cell supernatants 12 hours following the LPS challenge by using a commercial PGE2 EIA kit (Cayman Chemicals), a LTB4 competitive binding assay (R&D Systems) and a MCP-1 ELISA (R&D Systems), respectively, per the manufacturer's instructions.

lymphocytes = test: IL-2 production and lymphocyte proliferation (unpublished data); format: cell-based
[6] = 100 mg/kg oral gavage once daily 10 days, from 4 hours post-infection

CC1=CC(=O)CC(C)(C)C1(O)/C=C/C(C)=C\C(=O)O (racemic) [ABA, abscisic acid]
NF-κB activity (NF-κB [1]): did not affect
TLR4 expression levels by macrophages ([2]; LPS-treated PPAR γ-expressing mice): reduced
percentages of blood monocytes (F4/80+CD11b+) ([2]; LPS-treated immune cell-specific PPAR γ null mice, diet 36 days): significantly increased
TLR4 expression in CD8+ T cells ([2]; non-LPS treated mice): significantly reduced
TLR4 expression in MLN F4/80+CD11b+ macrophages ([2]; supplemented diet 36 days): significantly suppressed
weight loss and recovery (A/California/09 (H1N1); [6]): suppressed weight loss for both strains and accelerated recovery
glucose tolerance (A/California/09 (H1N1); lean and obese mice infected with H1N1): ameliorated glucose tolerance
glucose tolerance (A/California/09 (H1N1); uninfected control mice): ameliorated glucose tolerance
MCP-1 expression in white adipose tissue (A/California/09 (H1N1); uninfected mice): down-regulated MCP-1 expression
NF-κB reporter activity (NF-κB [3]): significantly suppressed
concentration at cAMP peak (macrophages): 2.5 µM
cAMP peak over control (macrophages; 2.5 μM): 10%
PPAR γ activation (PPAR γ): activates PPAR γ
weight loss (Influenza A/Udorn (H3N2); 50 mg/kg): slightly suppressed weight loss, although the differences were not statistically significant
weight loss and recovery (Influenza A/Udorn (H3N2); [6]): suppressed weight loss for both strains and accelerated recovery
accumulation of pro-inflammatory tipDC in lung (Influenza A/Udorn (H3N2); 100 mg/kg, 7 dpi, FACS): lowered the accumulation of pro-inflammatory tipDC
expression of MCP-1 in lungs (Influenza A/Udorn (H3N2); 3 and 7 dpi): lowered expression of MCP-1
pulmonary angiopoietin like 4 (ANGIOPL4) mRNA expression (Influenza A/Udorn (H3N2); day 7 post-infection): upregulated
pulmonary interleukin-10 (IL-10) mRNA expression (Influenza A/Udorn (H3N2); day 7 post-infection): upregulated
pulmonary 5-LOX activating protein (FLAP) expression (Influenza A/Udorn (H3N2); day 10 post-infection): upregulation
pulmonary 5-lipooxygenase (5-LOX) expression (Influenza A/Udorn (H3N2); day 10 post-infection): upregulation
pulmonary LANCL2 expression (Influenza A/Udorn (H3N2); day 10 post-infection): upregulation
pulmonary PPAR γ expression (Influenza A/Udorn (H3N2); day 10 post-infection): upregulation
epithelial necrosis (Influenza A/Udorn (H3N2); lung, WT): ameliorated
mucosal and submucosal inflammatory cell infiltration (Influenza A/Udorn (H3N2); lung, WT): ameliorated
perivascular cuffing (Influenza A/Udorn (H3N2); lung, WT): ameliorated
terminal airway infiltration (Influenza A/Udorn (H3N2); lung, WT): ameliorated
beneficial effects on lung inflammatory lesions (Influenza A/Udorn (H3N2); mice lacking PPAR γ in myeloid cells (myeloid KO)): abrogated
RXR reporter activity (RXR): does not increase
LANCL2 mRNA expression [4]: not LANCL2 mRNA expression
PPAR γ expression [4]: upregulation of PPAR γ
intracellular cAMP ([4]; ABA 10 μM): significantly increased intracellular cAMP
phosphodiesterase activity ([4]; data not shown): without affecting phosphodiesterase activity
PGE2 secretion ([5]; EIA): significantly suppressed
MCP-1 secretion ([5]; ELISA): significantly suppressed
IL-2 production (lymphocytes): increases
lymphocyte proliferation (lymphocytes): increases
